{"source": "patent US20040235920A1", "about": "“Novel use of substituted aminomethyl chromans for the treatment of movement disorders and of adverse effects induced by drugs administered to treat extrapyramidal movement disorders” (priority 2001, published 2004)", "key": {"cataleptic rat": {"system": "cataleptic rat", "experiment": "Reversal of catalepsy in rats (oral ED50)", "assay_type": "in vivo", "conditions": "result in words", "description": "Extrapyramidal motor side effects in e.g. rodents are measured by the ability of a drug to induce catalepsy. Catalepsy is defined as a state where an animal continues to remain in an unnormal (nonphysiological ‘uncomfortable’) posture for a long time (e.g.: M. E. Stanley and S. D. Glick, Neuropharmacology, 1996; 15: 393-394; C. J. E. Niemegeers and P. Janssen, Life Sci., 1979, […]). For example, if a hindpaw of a rat is placed on an elevated level, e.g. a platform elevated 3 cm above ground level, a normal rat immediately withdraws the hindpaw from the platform to the ground level. A cataleptic rat remains in this unnatural posture even for minutes."}, "[1]": {"system": "Parkinsonian cynomolgus monkey", "experiment": "MPTP Parkinsonian cynomolgus monkey chronically treated with l-dopa (Abnormal Involuntary Movement Scale, rating for psychotic states)", "assay_type": "in vivo", "conditions": "MPTP monkeys, long-term l-dopa", "description": "Treatment of adverse effects of conventional anti-Parkinsonian drugs as defined above are determined in a modification of the animal model of the Parkinsonian cynomolgus monkey according to P. J. Blanchet et al., Exp. Neurology 1998; 153: 214-222. Monkeys render parkinsonian by repeated injections of 1-methyl-4-phenyl-1,2,3,6-tetrahydropyridine (MPTP). The Parkinsonian monkeys are chronically treated with the standard l-dopa therapy according to P. J. Blanchet et al., Mov. Disord., 1998; 13: 798-802. Longterm treatment with l-dopa induces extrapyramidal motor side effects and psychotic states which are both qualitatively and quantitatively, assessed by the Abnormal Involuntary Movement Scale (P. J. Blanchet et al., Mov. Disord. 1998; 13: 798-802) for different body parts (face, neck, trunk, each limb) and by rating for psychotic states by observing the monkey's attention, reactivity and mobility. (−)-(R)-2-{4-[[3,4-dihydro-2H-benzopyran-2-yl)-methyl]amino]butyl}-1,2-benzoisothiazol-3-(2H)-on-1,1-dioxide reduced overall choreiform dyskinesias and dystonic dyskinesias as well as psychotic states."}, "[2]": {"system": "rat with nigrostriatal degeneration", "experiment": "Striatonigral degeneration in the rat (6-hydroxydopamine plus quinolinic acid), turning behavior", "assay_type": "in vivo", "conditions": "automated recorder", "from_the_text": "Another more recent animal model is the striatonigral degeneration approach in the rat according to G. K. Wenning et al., J. Neural Transm. Suppl., 1999; 55: 103-113. Rats receive an unilateral injection of 6-hydroxydopamine into the left medial forebrain bundle followed by an injection of quinolinic acid into the ipsilateral striatum inducing nigrostriatal degeneration. The degeneration results in turning behavior to a challenge with dopaminomimetics such as apomorphine or amphetamine. Turning behavior is measured by an automated recorder."}, "[3]": {"system": "patients with Huntington's disease", "experiment": "Add-on trial in patients with Huntington's disease (AIMS, UHDRS)", "assay_type": "in vivo, human", "conditions": "2.5 to 20 mg b.i.d., typical trial", "description": "A typical trial to establish the effect of the compounds according to the invention on chorea, voluntary motor performance, and functional disability in patients with Huntington's disease encompasses 32 genetically diagnosed patients. (−)-(R)-2-{4-[[3,4-dihydro-2H-benzopyran-2-yl)-methyl]amino]butyl}-1,2-benzoisothiazol-3-(2H)-on-1,1-dioxide monohydrochloride or placebo is administered as “add on” to the conventional treatment, which is maintained unchanged during the whole study. The dose of blinded medication is titrated over a period of 3 weeks in a range from 2.5 to 20 mg b.i.d. Then the medication is held constant for 1 week. Assessments are performed in the week before and at the last day of the trial. Chorea is scored using the abnormal involuntary movement scale (AIMS, W. Guy, in: ECDEU assessment manual. Rockville Md: US dept. of health, education and welfare, 1976: 534-537), the unified Huntington's disease rating scale (UHDRS, Huntington study group, 1996, Movement Disord, 11: 136-42), and judgement of video recordings. Voluntary motor performance is assessed using the UHDRS motor scale. Patients and their partners complete a questionnaire regarding functional disability."}, "mutant dystonic hamster": {"system": "mutant dystonic hamster", "experiment": "Mutant dystonic hamster, scoring of dystonic attacks", "assay_type": "in vivo", "conditions": "scoring system", "from_the_text": "A typical animal model is the mutant dystonic hamster according to A. Richter and W. Löscher, Prog. Neurobiol. 1998; 54: 633-677. In this genetically dystonic hamsters, dystonic attacks are provoked by taking the animal from the home cage and placing it on a balance. The dystonic syndrome consists of a sequence of abnormal movements, and the severity of the single symptoms is rated by a scoring system."}, "[4]": {"system": "rats challenged with haloperidol", "experiment": "Neuroleptics-induced muscle rigidity in rats (haloperidol)", "assay_type": "in vivo, rat", "conditions": "resistance to passive flexion and extension of the hind limb", "from_the_text": "A typical animal model is neuroleptics-induced muscle rigidity in rats according to S. Wolfarth et al., Arch. Pharmacol. 1992; 345: 209-212. Rats are challenged with the conventional neuroleptic drug haloperidol which enhances muscle tone. Muscle tone is electromechanically measured as the resistence to passive flexion and extension of the hind limb. (−)-(R)-2-{4-[[3,4-dihydro-2H-benzopyran-2-yl)-methyl]amino]butyl}-1,2-benzoisothiazol-3-(2H)-on-1,1-dioxide or a pharmaceutically acceptable salt thereof decreased the muscle tone enhanced by haloperidol."}, "[5]": {"system": "neuroleptics sensitized monkey", "experiment": "Neuroleptics sensitized monkey, haloperidol challenge", "assay_type": "in vivo", "conditions": "after haloperidol challenge, scoring system", "from_the_text": "Another typical animal model is the neuroleptics sensitized monkey according to D. E. Casey, Psychopharmacology, 1996; 124: 134-140. Monkeys treated repeatedly with conventional neuroleptics are highly sensitive to a subsequent challenge dose of neuroleptic drugs. When challenged, the monkeys immediately show extrapyramidal motor side effects such as dystonia, dyskinesias, akathisia, and bradykinesia which are rated by a scoring system. The conventional neuroleptic drug haloperidol is given as a challenge."}, "Pietrain pig": {"system": "Pietrain pig", "experiment": "Campus Syndrome in the Pietrain pig, tremor", "assay_type": "in vivo", "conditions": "when standing and during locomotion", "from_the_text": "(§1) Typical genetic models in mutant animals are the Campus Syndrome in the Pietrain pig according to A. Richter et al. (Exp. Neurology, 1995; 134: 205-213) or the Weaver mutant mouse according to J. R. Simon and B. Ghetti (Mol. Neurobiol., 1994; 9: 183-189). In the Campus Syndrome model, these mutant pigs show a high-frequency tremor when standing and during locomotion, but not while lying at rest. Assessment of tremor is made by accelerometric recording. In the Weaver mutant mouse, degenerative cerebellar atrophy is found in association with tremor, gait instability, and toppling over the sides after a few steps."}, "Weaver mutant mouse": {"system": "Weaver mutant mouse", "experiment": "Weaver mutant mouse, locomotor activity", "assay_type": "in vivo", "conditions": "activity cages", "from_the_text": "as §1"}, "[6]": {"system": "rats with posthypoxic myoclonus", "experiment": "Posthypoxic myoclonus in rats after cardiac arrest", "assay_type": "in vivo, rat", "conditions": "after 8 minutes cardiac arrest", "description": "A typical animal model for myoclonus is myoclonus induced by an acute hypoxic episode according to D. D. Truong et al., Mov. Dsiord., 1994; 9: 201-206). In this model of posthypoxic myoclonus, rats undergo a cardiac arrest for 8 minutes and are resuscitated thereafter. Myoclonic jerks occur spontaneously but can be provoked by auditory stimulation, too, worsening over the days following cardiac arrest."}, "[7]": {"conditions": "Abnormal Involuntary Movement Scale"}}}
{"compound": "O=C1c2ccccc2S(=O)(=O)N1CCCCNC[C@H]1CCc2ccccc2O1", "note": "[(−)-(R)-2-{4-[[3,4-dihydro-2H-benzopyran-2-yl)-methyl]amino]butyl}-1,2-benzoisothiazol-3-(2H)-on-1,1-dioxide]", "values": [{"measurement": "potency in reversing catalepsy", "setting": "cataleptic rat", "value": "extraordinary potency in reversing catalepsy"}, {"measurement": "dystonic dyskinesias", "setting": "[1]; [7]", "value": "reduced"}, {"measurement": "overall choreiform dyskinesias", "setting": "[1]; [7]", "value": "reduced"}, {"measurement": "psychotic states", "setting": "[1]; rating of attention, reactivity and mobility", "value": "reduced"}, {"measurement": "turning behavior induced by amphetamine", "setting": "[2]", "value": "dose-dependently antagonized"}, {"measurement": "turning behavior induced by apomorphine", "setting": "[2]", "value": "dose-dependently antagonized"}, {"measurement": "involuntary motor performance", "setting": "[3]; AIMS, UHDRS, video", "value": "significant improvement"}, {"measurement": "voluntary motor performance", "setting": "[3]; UHDRS motor scale", "value": "significant improvement"}, {"measurement": "severity of dystonic symptoms", "setting": "mutant dystonic hamster", "value": "dose-dependently reduced"}, {"measurement": "muscle tone enhanced by haloperidol", "setting": "[4]", "value": "decreased"}, {"measurement": "extrapyramidal motor side effects (dystonia, dyskinesias, akathisia, bradykinesia)", "setting": "[5]", "value": "dose-dependently reduce"}, {"measurement": "Campus Syndrome tremor", "setting": "Pietrain pig", "value": "reduced disabling tremor when standing and during locomotion"}, {"measurement": "locomotor activity", "setting": "Weaver mutant mouse", "value": "enhanced locomotor activity"}, {"measurement": "number of auditory-evoked myoclonic jerks", "setting": "[6]", "value": "dose-dependently reduce"}, {"measurement": "number of spontaneous myoclonic jerks", "setting": "[6]", "value": "dose-dependently reduce"}]}
